In one data set the target is Src (Homo sapiens, UniProt P12931). The following applies: sources as Table 1 footnote; cited from earlier work.
Data set [1] concerns human pterygium epithelial cells (hPECs). The data set can be described thus: Human pterygium mouse model, corneal pterygium lesion size. The following applies: vs day 7 baseline; 0.2% nintedanib, 0.05% sunitinib, 0.002% mitomycin or combination.
For data set [2], the system named is corneal neovascularization (NV). As to the kind of experiment: Human pterygium mouse model, corneal neovascularization score. The following applies: vs day 7 baseline, score 0 through 3, 0.2% nintedanib, 0.05% sunitinib, 0.002% mitomycin or combination. Format: in vivo, athymic nude mice.
Data set [3] has as its system suture-induced neovascularization in the rabbit cornea. As to the kind of experiment: Rabbit cornea suture model of neovascularization. Format: in vivo. The procedure:
The rabbit cornea suture model was established to assess drug effects on cornea neovascularization (Ko et al. Cornea. 2013; 32(5): 689-695; Perez-Santonj a et al. Am J Ophthalmol. 2010; 150(4):519-528). […] Thirty six female Zealand White rabbits were used to perform the study. […] The animals were treated in both eyes as described in Table 4. [table] During the study, the animals were closely observed for various ocular indications as well as general physical conditions including body weight. […] NIH ImageJ® software was used to analyze the ocular images. Each image was opened in ImageJ®, the scale was calibrated using the ruler in the photograph and the neovascularized area on the cornea near the suture was selected by the selection tool. […] The results were plotted as histograms of average with standard deviation for easy comparison.

For data set [4] the following is noted: rabbit, in vivo.
For data set [5] the following is noted: rabbits with corneal sutures dosed with sunitinib for 7 days (Perez-Santonja 2010); cited from earlier work.
Where [6] appears, read: 0.05% BID topical, Day 10 (after 2 days of treatment).
The mark [7] stands for this setting: 0.05% BID topical, Day 12 (after 4 days of treatment).
[8] abbreviates: 0.05% BID topical, Day 14 (after 6 days of treatment).
The mark [9] stands for this setting: 0.05% TID topical, Day 10 (after 2 days of treatment).
The mark [10] stands for this setting: 0.05% TID topical, Day 12 (after 4 days of treatment).
[11] abbreviates: 0.05% TID topical, Day 14 (after 6 days of treatment).
Where [12] appears, read: 0.2% BID topical, Day 10 (after 2 days of treatment).
Where [13] appears, read: 0.2% BID topical, Day 12 (after 4 days of treatment).
[14] abbreviates: 0.2% BID topical, Day 14 (after 6 days of treatment).
Setting [15] is: 0.2% TID topical, Day 10 (after 2 days of treatment).
[16] abbreviates: 0.2% TID topical, Day 12 (after 4 days of treatment).
Where [17] appears, read: 0.2% TID topical, Day 14 (after 6 days of treatment).

The values that follow come from patent US12186424B2, “Compositions and methods for treating pterygium recurrence” (Cloudbreak Therapeutics, LLC, priority 2015, dated 2025).

SMILES strings stand for the structures. Entries after “also recorded” stand apart in the source; their conditions may differ.

Chain of Src (P12931 whole entry, species assumed): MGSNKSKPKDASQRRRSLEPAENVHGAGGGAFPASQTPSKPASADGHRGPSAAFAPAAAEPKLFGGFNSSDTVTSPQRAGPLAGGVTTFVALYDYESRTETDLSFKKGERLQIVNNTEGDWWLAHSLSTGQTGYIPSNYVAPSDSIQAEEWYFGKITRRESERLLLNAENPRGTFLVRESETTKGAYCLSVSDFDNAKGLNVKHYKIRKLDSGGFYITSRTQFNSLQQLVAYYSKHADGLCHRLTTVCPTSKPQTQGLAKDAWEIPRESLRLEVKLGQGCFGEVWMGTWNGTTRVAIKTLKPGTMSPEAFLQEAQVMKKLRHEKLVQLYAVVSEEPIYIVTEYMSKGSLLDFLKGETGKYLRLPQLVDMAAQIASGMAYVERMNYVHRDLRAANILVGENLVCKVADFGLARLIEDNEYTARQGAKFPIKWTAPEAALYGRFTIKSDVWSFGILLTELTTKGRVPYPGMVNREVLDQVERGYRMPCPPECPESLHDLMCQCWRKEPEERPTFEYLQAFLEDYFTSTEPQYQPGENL

A word on the IC50: it is the concentration that inhibits the measured activity by half. For `COc1cc2c(Oc3ccc4[nH]c(C)cc4c3F)ncnc2cc1OCCCN1CCCC1` [Cediranib], the IC50 at Src was 130 nM.
Take `CO[C@@]12[C@H](COC(N)=O)C3=C(C(=O)C(C)=C(N)C3=O)N1C[C@@H]1N[C@@H]12` [MMC]: the “Effect on pterygium lesion area on mouse cornea (in words)” value in data set [1] is on record as “showed a trend of reduction in pterygium areas but didn't reach statistical significance at any of the time points; also recorded: showed a trend of reduction of pterygium lesion area but the differences at each time points from the day 7 baseline are not statistically significant”. Further, the “Effect on corneal neovascularization score (in words)” value in data set [2] (listed as Mitomycin) is “reduced neovascularization score, with significant reductions on day 17”; in data set [2] (listed as mitomycin), “reduced the neovascularization on cornea and the reduction was significant comparing levels on day 17 vs the baseline on day 7”.
Take `COC(=O)c1ccc2c(c1)NC(=O)/C2=C(\Nc1ccc(N(C)C(=O)CN2CCN(C)CC2)cc1)c1ccccc1` [Nintedanib, Methyl (3Z)-3-{[(4-{methyl[(4-methylpiperazin-1-yl)acetyl]amino}phenyl)amino] (phenyl)methylidene}-2-oxo-2,3-dihydro-1H-indole-6-carboxylate]: the “Neovascular Area” value was found to be 5.97 mm^2 in data set [3] (setting [6]); 5.03 mm^2 in data set [3] (setting [7]); 7.20 mm^2 in data set [3] (setting [8]); 3.23 mm^2 in data set [3] (setting [9]); 2.14 mm^2 in data set [3] (setting [10]); 4.01 mm^2 in data set [3] (setting [11]). Besides, the “Neovascular Area” value in data set [3] (setting [12]) was 3.32 mm^2; in data set [3] (setting [13]) it was 4.15 mm^2; in data set [3] (setting [14]) it was 5.44 mm^2; in data set [3] (setting [15]) it was 2.48 mm^2; in data set [3] (setting [16]), 2.56 mm^2; in data set [3] (setting [17]), 2.88 mm^2. Moreover, the “Neovascular Area Mean Percent Change over Day 7 Baseline (− sign indicates decrease)” value was 64.08% in data set [3] (setting [6]); 45.56% in data set [3] (setting [7]); 99.48% in data set [3] (setting [8]); 1.99% in data set [3] (setting [9]); −27.87% in data set [3] (setting [10]); 32.66% in data set [3] (setting [11]). Moreover, the “Neovascular Area Mean Percent Change over Day 7 Baseline (− sign indicates decrease)” value in data set [3] (setting [12]) is reported as 12.09%; in data set [3] (setting [13]), 37.15%; in data set [3] (setting [14]), 73.51%; in data set [3] (setting [15]), −16.84%; in data set [3] (setting [16]) it was −13.80%; in data set [3] (setting [17]), −1.51%. Also, in data set [3] (0.2% or 0.05% topical, BID or TID, days 8 to 15), the “Effect on suture-induced neovascularization in the rabbit cornea (in words)” value is given as “marked inhibitory effect on suture-induced neovascularization in the rabbit cornea”. Also, the “Effect on pterygium lesion area on mouse cornea (in words)” value in data set [1] is “led to a reduction of the pterygium area on day 14 and day 17 in comparison to the baseline level on day 7; also recorded: reduced pterygium lesion area on mouse cornea”. Also, in data set [4], the “Potential toxicity: abnormal lens with incomplete lenticular opacity” value was “none was observed”. Further, the “Effect on corneal neovascularization score (in words)” value in data set [2] is “reduced neovascularization score on the cornea during the treatments with the level on day 17 showing a significant difference from the baseline on day 7”; in data set [2] (listed as nintedanib), “reduced the neovascularization on cornea and the reduction was significant comparing levels on day 17 vs the baseline on day 7”.
`CCN(CC)CCNC(=O)c1c(C)[nH]c(/C=C2\C(=O)Nc3ccc(F)cc32)c1C` [Sunitinib]: in data set [3] (setting [9]), the “Neovascular Area” value is 3.58 mm^2 and the “Neovascular Area Mean Percent Change over Day 7 Baseline (− sign indicates decrease)” value is reported as 10.80%. Moreover, in data set [3] (setting [10]), the “Neovascular Area” value was 4.62 mm^2 and the “Neovascular Area Mean Percent Change over Day 7 Baseline (− sign indicates decrease)” value is reported as 49.72%. Moreover, in data set [3] (setting [11]), the “Neovascular Area” value was found to be 5.96 mm^2 and the “Neovascular Area Mean Percent Change over Day 7 Baseline (− sign indicates decrease)” value stood at 98.38%. In addition, in data set [5], the “Anterior chamber cellular reaction” value is “an anterior chamber cellular reaction was observed on day 1” and the “Iris surface staining (drug deposits)” value is given as “Iris surface yellowish staining, which represents sunitinib deposits on the iris surface was observed during the whole dosing period”. In addition, the “Potential toxicity: abnormal lens with incomplete lenticular opacity” value in data set [4] is on record as “abnormal lens with incomplete lenticular opacity was observed in one rabbit”.
